According to PMC9699427 (Viruses, 2022):
Like-named read-outs stand apart in the source and are kept apart here.

Legend:
[1] = system: C8166 cells infected with HIV-1IIIB or TZM-bl cells infected with HIV-1YU-2; test: Combination antiviral activity assay (CompuSyn CI and DRI); format: cell-based
[2] = Cytotoxicity, MTT assay, C8166 cells; format: cell-based; conditions: human, three days, read-out: CC50 (Mean ± SD)
[3] = molecular target: CYP2C19 (Homo sapiens, UniProt P33261); test: Cytochrome P450 inhibition, human liver microsomes, S-mephenytoin
CYP2C19, sequence (P33261 whole entry): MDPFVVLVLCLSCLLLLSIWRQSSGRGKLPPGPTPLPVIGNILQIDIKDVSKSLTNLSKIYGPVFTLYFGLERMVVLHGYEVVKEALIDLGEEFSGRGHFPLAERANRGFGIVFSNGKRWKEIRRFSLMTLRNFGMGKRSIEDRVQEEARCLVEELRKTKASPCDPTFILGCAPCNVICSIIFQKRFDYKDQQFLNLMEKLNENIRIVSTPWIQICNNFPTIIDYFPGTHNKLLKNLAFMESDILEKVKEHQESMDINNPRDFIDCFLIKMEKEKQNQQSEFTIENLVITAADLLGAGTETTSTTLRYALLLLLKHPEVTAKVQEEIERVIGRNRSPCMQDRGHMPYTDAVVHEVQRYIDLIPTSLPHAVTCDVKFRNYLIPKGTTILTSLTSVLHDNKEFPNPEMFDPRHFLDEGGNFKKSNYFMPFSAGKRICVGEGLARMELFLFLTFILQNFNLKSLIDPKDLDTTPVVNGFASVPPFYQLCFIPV

[4] = Cytotoxicity, MTT assay, MT-4 cells; format: cell-based; conditions: human, three days, read-out: CC50 (Mean ± SD)
[5] = Cytotoxicity, MTT assay, H9/HIV-1IIIB cells; format: cell-based; conditions: human, three days, read-out: CC50 (Mean ± SD)
[6] = molecular target: CYP2D6 (Homo sapiens, UniProt P10635); test: Cytochrome P450 inhibition, human liver microsomes, dextromethorphan
CYP2D6, sequence (P10635 whole entry): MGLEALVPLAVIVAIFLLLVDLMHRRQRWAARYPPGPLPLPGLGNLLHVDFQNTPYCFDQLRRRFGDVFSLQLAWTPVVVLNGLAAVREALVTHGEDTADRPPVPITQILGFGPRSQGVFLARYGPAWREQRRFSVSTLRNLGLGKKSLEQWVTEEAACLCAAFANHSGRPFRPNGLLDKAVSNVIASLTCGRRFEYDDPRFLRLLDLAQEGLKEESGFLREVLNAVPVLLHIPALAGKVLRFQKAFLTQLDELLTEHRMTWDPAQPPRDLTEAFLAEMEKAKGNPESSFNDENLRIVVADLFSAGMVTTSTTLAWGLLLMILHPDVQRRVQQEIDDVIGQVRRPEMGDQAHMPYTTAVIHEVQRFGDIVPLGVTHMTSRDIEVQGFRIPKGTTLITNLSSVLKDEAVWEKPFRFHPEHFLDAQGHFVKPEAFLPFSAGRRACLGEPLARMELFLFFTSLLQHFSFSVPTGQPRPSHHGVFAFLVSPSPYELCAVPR

[7] = system: HIV-1IIIB; test: Anti-HIV-1 activity, MTT protection of MT-4 cells; format: cell-based; conditions: Human immunodeficiency virus 1, MT4, MT-4, MTT
[8] = system: HIV-1IIIB; test: Anti-HIV-1 activity, syncytia (CPE) count in C8166 cells; format: cell-based; conditions: Human immunodeficiency virus 1
[9] = molecular target: T1, CYP1A2 (Homo sapiens, UniProt P05177); test: Cytochrome P450 inhibition, human liver microsomes, phenacetin
T1 sequence (P05177 1-516): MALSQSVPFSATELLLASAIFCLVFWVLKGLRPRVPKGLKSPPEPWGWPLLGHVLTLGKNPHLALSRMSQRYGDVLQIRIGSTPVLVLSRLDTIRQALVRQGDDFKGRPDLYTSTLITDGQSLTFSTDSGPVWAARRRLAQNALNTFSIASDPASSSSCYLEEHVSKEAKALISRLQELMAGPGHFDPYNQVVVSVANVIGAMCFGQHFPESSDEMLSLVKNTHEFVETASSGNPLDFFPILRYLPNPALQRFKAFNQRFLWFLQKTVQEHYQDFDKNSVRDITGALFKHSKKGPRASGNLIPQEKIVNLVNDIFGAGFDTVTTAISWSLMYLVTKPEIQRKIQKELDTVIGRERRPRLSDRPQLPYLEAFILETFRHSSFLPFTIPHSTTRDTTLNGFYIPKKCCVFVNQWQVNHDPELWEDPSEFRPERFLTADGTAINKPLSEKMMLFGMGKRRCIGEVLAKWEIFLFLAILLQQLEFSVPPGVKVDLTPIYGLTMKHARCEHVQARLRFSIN

[10] = system: HIV-1IIIB chronically infected H9 cells; test: HIV-1 replication in chronically infected H9/HIV-1IIIB cells, p24; format: cell-based
[11] = molecular target: CYP2C9 (Homo sapiens, UniProt P11712); test: Cytochrome P450 inhibition, human liver microsomes, diclofenac
CYP2C9, sequence (P11712 whole entry): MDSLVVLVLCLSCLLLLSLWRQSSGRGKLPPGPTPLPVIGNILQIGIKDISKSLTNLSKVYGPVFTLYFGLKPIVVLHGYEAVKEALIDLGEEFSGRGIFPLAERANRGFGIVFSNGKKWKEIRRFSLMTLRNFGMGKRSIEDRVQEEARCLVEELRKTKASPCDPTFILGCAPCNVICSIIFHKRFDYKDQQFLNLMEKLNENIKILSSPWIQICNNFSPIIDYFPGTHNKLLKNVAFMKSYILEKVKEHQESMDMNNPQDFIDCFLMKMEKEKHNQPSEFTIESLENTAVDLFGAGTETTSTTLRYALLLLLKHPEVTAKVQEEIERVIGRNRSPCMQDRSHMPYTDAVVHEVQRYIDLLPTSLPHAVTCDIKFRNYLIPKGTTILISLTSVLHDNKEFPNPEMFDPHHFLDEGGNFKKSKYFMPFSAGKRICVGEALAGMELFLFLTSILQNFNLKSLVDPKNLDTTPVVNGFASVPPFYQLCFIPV

[12] = Cytotoxicity, MTT assay, PBMCs; format: cell-based; conditions: human, PBMC, seven days, read-out: CC50 (Mean ± SD)
[13] = system: HIV-1Yu-2(G140S/Q148H); test: microbe, parasite or virus in culture; format: cell-based; conditions: Human immunodeficiency virus 1, TZM-bl
[14] = system: HIV-1IIIB; test: Anti-HIV-1 activity in the presence of human serum, p24 in C8166; conditions: Human immunodeficiency virus 1, C8166, HIV-1IIIB
[15] = molecular target: CYP3A4M (Homo sapiens, UniProt P08684); test: Cytochrome P450 inhibition, human liver microsomes, midazolam
CYP3A4M, sequence (P08684 whole entry): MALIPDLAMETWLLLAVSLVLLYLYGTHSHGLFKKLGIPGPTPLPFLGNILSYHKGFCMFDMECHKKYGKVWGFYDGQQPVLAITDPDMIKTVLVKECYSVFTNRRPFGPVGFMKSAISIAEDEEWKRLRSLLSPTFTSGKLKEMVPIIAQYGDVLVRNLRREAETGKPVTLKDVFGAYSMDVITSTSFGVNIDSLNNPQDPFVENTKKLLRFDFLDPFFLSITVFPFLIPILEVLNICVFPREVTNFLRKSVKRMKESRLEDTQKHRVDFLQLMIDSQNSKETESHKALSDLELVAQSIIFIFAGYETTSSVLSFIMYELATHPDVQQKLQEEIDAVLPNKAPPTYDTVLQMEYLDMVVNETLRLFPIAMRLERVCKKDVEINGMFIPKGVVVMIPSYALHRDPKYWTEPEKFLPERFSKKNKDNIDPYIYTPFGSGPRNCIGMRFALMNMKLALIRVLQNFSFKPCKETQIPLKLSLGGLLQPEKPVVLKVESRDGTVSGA

[16] = single drug in combination K-5a2+3TC
[17] = single drug in combination K-5a2+AZT
[18] = single drug in combination K-5a2+DRV
[19] = single drug in combination K-5a2+DTG
[20] = single drug in combination K-5a2+ETR
[21] = single drug in combination K-5a2+FTC
[22] = single drug in combination K-5a2+TDF
[23] = single drug in combination K-5a2+T-20
[24] = single drug in combination K-5a2+MVC
[25] = single drug in combination K-5a2+DC521022

Compound: Nc1ccn([C@@H]2CS[C@H](CO)O2)c(=O)n1 [3TC, lamivudine, reference compound]
- DRI Value ED75 [1, 16]: 2.83 ± 0.52
- DRI Value ED90 [1, 16]: 3.28 ± 0.80
- DRI Value ED95 [1, 16]: 3.64 ± 1.06

Compound: Cc1cn([C@H]2C[C@H](N=[N+]=[N-])[C@@H](CO)O2)c(=O)[nH]c1=O [AZT, zidovudine, reference compound]
- DRI Value ED75 [1, 17]: 4.88 ± 2.30
- DRI Value ED90 [1, 17]: 5.60 ± 2.33
- DRI Value ED95 [1, 17]: 6.52 ± 3.94

Compound: CC(C)CN(C[C@@H](O)[C@H](Cc1ccccc1)NC(=O)O[C@H]1CO[C@H]2OCC[C@H]21)S(=O)(=O)c1ccc(N)cc1 [DRV, darunavir, reference compound]
- DRI Value ED75 [1, 18]: 2.82 ± 0.21
- DRI Value ED90 [1, 18]: 3.41 ± 0.86
- DRI Value ED95 [1, 18]: 3.93 ± 1.44

Compound: C[C@@H]1CCO[C@H]2Cn3cc(C(=O)NCc4ccc(F)cc4F)c(=O)c(O)c3C(=O)N12 [DTG, dolutegravir, reference compound]
- DRI Value ED75 [1, 19]: 2.37 ± 0.28
- DRI Value ED90 [1, 19]: 2.50 ± 0.41
- DRI Value ED95 [1, 19]: 2.61 ± 0.68

Compound: Cc1cc(C#N)cc(C)c1Oc1nc(Nc2ccc(C#N)cc2)nc(N)c1Br [ETR, etravirine, reference compound]
- CC50 at 3 days [2]: > 50 µM
- IC50 [3]: 0.5 µM
- CC50 at 3 days [4]: 27.4 ± 5.46 µM
- CC50 at 3 days [5]: 30.4 ± 1.59 µM
- IC50 [6]: 12 µM
- EC50 [7]: 0.00615 ± 0.00176 µM
- EC50 [8]: 0.00174 ± 0.00067 µM
- IC50 [9]: 7.48 µM
- EC50 ([10]; Human immunodeficiency virus 1, HIV-1IIIB, H9/HIV-1IIIB chronically infected, p24): > 50 µM
- Inhibition of HIV-1 replication in HIV-1IIIB chronically infected H9 cells ([10]; at a concentration of 50.00 µM): could not inhibit the replication
- IC50 [11]: 0.28 µM
- DRI Value ED75 [1, 20]: 2.44 ± 0.52
- DRI Value ED90 [1, 20]: 2.20 ± 0.58
- DRI Value ED95 [1, 20]: 2.06 ± 0.61
- CC50 at 7 days [12]: 34.5 ± 3.06 µM
- EC50 [13]: < 0.00013 µM
- EC50 ([14]; C8166, p24, 20% human serum): 0.00656 ± 0.00489 µM
- EC50 ([14]; C8166, p24, 40% human serum): 0.00209 ± 0.00065 µM
- IC50 [15]: 41.3 µM

Compound: Nc1nc(=O)n([C@@H]2CS[C@H](CO)O2)cc1F [FTC, emtricitabine, reference compound]
- DRI Value ED75 [1, 21]: 2.38 ± 0.10
- DRI Value ED90 [1, 21]: 2.22 ± 0.23
- DRI Value ED95 [1, 21]: 2.11 ± 0.32

Compound: Cc1nnc(C(=O)NC(C)(C)c2nc(C(=O)NCc3ccc(F)cc3)c(O)c(=O)n2C)o1 [RAL, raltegravir, reference compound]
- DRI Value ED75 [1]: 3.08 ± 1.11
- DRI Value ED90 [1]: 3.50 ± 1.64
- DRI Value ED95 [1]: 3.83 ± 2.07

Compound: C[C@H](Cn1cnc2c(N)ncnc21)OCP(=O)(O)O [TDF, tenofovir, reference compound]
- DRI Value ED75 [1, 22]: 3.22 ± 0.71
- DRI Value ED90 [1, 22]: 3.46 ± 0.35
- DRI Value ED95 [1, 22]: 3.69 ± 0.66

Compound: enfuvirtide [T-20, reference compound]
- DRI Value ED75 [1, 23]: 2.05 ± 0.42
- DRI Value ED90 [1, 23]: 2.37 ± 0.18
- DRI Value ED95 [1, 23]: 2.69 ± 0.66

Compound: maraviroc [MVC, reference compound]
- DRI Value ED75 [1, 24]: 4.58 ± 0.50
- DRI Value ED90 [1, 24]: 5.10 ± 0.83
- DRI Value ED95 [1, 24]: 5.49 ± 1.09

Compound: thioraviroc [DC521022, reference compound]
- DRI Value ED75 [1, 25]: 5.41 ± 4.21
- DRI Value ED90 [1, 25]: 7.32 ± 6.96
- DRI Value ED95 [1, 25]: 9.08 ± 9.61
